# Target: T1, Alpha-1B adrenergic receptor (Homo sapiens) (UniProt P35368)
# T1 sequence (whole entry): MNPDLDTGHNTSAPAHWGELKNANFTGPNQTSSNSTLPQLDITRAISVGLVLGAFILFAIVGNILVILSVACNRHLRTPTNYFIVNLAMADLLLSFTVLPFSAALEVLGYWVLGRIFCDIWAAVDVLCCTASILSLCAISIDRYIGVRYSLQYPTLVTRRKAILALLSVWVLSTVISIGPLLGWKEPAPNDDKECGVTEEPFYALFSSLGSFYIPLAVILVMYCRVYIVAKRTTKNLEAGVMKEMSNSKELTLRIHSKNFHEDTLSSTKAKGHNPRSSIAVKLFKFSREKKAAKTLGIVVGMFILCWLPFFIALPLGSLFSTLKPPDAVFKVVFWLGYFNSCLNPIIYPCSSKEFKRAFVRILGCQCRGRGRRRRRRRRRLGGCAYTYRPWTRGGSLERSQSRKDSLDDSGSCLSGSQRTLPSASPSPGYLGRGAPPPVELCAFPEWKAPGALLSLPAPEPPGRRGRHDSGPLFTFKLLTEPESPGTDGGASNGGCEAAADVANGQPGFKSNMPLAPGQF
# Assay: Activation of human alpha-1B-adrenoceptor receptors expressed in rat-1 fibroblasts as percent maximal effect relative to phenylephrine
# Assay type: functional
row,Max [%],Structure (SMILES)
1,78,CSc1ccccc1NCc1c[nH]cn1
2,89,CCCNC(=O)c1ccccc1NCc1c[nH]cn1
3,81,c1ccc(-c2ccno2)c(OCC2=NCCN2)c1
4,105,CSc1ccccc1NCC1=NCCN1

# Tested on: not listed separately
# Assay: Acid dissociation constant for the compound was determined
# Assay type: ADME
row,pKa,Structure (SMILES)
1,6.5,CSc1ccccc1NCc1cnc[nH]1
2,10.3,CSc1ccccc1NCC1=NCCN1

# Target: T2, Alpha-1A adrenergic receptor (Homo sapiens, UniProt P35348)
# T2 sequence (P35348 whole entry): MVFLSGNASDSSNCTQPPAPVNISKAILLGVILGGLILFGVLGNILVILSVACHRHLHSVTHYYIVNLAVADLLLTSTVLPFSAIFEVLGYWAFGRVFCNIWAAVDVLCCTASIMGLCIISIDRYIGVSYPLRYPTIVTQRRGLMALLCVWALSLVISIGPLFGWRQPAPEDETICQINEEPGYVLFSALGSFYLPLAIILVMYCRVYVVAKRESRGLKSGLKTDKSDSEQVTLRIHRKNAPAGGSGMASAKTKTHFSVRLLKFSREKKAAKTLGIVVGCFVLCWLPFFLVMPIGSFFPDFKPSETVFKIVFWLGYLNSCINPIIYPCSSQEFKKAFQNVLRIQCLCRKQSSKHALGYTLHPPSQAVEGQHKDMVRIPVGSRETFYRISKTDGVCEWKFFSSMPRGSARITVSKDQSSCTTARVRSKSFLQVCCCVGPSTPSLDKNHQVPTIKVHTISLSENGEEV
# Assay: Activation of human alpha-1A adrenergic receptor expressed in rat-1 fibroblasts
# Assay type: functional
row,Structure (SMILES),EC50 [µM]
1,CCN(CC)C(=O)c1ccccc1OCc1c[nH]cn1,> 100
2,COc1ccc(S(C)(=O)=O)c(NCC2=NCCN2)c1,0.0126
3,CCN(CC)C(=O)c1ccccc1OCC1=NCCN1,> 100
4,Oc1ccc2cccc(NCc3c[nH]cn3)c2c1,0.0631

# Continued, values first:
row,EC50 [µM],Structure (SMILES)
1,0.0631,CCN(CC)C(=O)c1ccccc1NCc1c[nH]cn1
2,0.02,c1ccc(-c2cnco2)c(NCC2=NCCN2)c1
3,0.01,CSc1ccccc1NCc1cnc[nH]1
4,0.00631,Oc1ccc2cccc(NCC3=NCCN3)c2c1
5,0.00631,c1ccc(-c2ccno2)c(OCC2=NCCN2)c1
6,0.00501,CSc1ccccc1NCC1=NCCN1
7,0.00398,CCCNC(=O)c1ccccc1NCc1c[nH]cn1

# Target: T3, Alpha-1B adrenergic receptor (Homo sapiens, UniProt P35368)
# T3 sequence (P35368 whole entry): T1 sequence (whole entry)
# Assay: In vitro binding affinity against cloned human alpha-1B-adrenoceptor receptors expressed in rat-1 fibroblasts
row,Structure (SMILES),IC50 [µM]
1,CCN(CC)C(=O)c1ccccc1OCc1c[nH]cn1,> 30.2
2,CCN(CC)C(=O)c1ccccc1OCC1=NCCN1,> 30.2

# The remaining lines, values ahead:
row,IC50 [µM],Structure (SMILES)
1,0.891,CSc1ccccc1NCc1cnc[nH]1
2,0.219,CSc1ccccc1NCC1=NCCN1
3,3.02,CCCNC(=O)c1ccccc1NCc1c[nH]cn1

# Target: T4, Alpha-1A adrenergic receptor (Homo sapiens) (UniProt P35348)
# T4 sequence (whole entry): T2 sequence (P35348 whole entry)
# Assay: Activation of human alpha-1A adrenergic receptor expressed in rat-1 fibroblasts; expressed as a percent of the maximal effect of the phenylephrine
# Assay type: functional
row,Structure (SMILES),Max [%]
1,CSc1ccccc1NCc1c[nH]cn1,94
2,Oc1ccc2cccc(NCc3c[nH]cn3)c2c1,100

# The remaining lines, values ahead:
row,Max [%],Structure (SMILES)
1,114,CCN(CC)C(=O)c1ccccc1NCc1c[nH]cn1
2,107,c1ccc(-c2cnco2)c(NCC2=NCCN2)c1
3,110,Oc1ccc2cccc(NCC3=NCCN3)c2c1
4,91,c1ccc(-c2ccno2)c(OCC2=NCCN2)c1
5,105,CSc1ccccc1NCC1=NCCN1
6,100,CCCNC(=O)c1ccccc1NCc1c[nH]cn1

# Target: T5, Alpha-1D adrenergic receptor (Homo sapiens, UniProt P25100)
# T5 sequence (P25100 whole entry): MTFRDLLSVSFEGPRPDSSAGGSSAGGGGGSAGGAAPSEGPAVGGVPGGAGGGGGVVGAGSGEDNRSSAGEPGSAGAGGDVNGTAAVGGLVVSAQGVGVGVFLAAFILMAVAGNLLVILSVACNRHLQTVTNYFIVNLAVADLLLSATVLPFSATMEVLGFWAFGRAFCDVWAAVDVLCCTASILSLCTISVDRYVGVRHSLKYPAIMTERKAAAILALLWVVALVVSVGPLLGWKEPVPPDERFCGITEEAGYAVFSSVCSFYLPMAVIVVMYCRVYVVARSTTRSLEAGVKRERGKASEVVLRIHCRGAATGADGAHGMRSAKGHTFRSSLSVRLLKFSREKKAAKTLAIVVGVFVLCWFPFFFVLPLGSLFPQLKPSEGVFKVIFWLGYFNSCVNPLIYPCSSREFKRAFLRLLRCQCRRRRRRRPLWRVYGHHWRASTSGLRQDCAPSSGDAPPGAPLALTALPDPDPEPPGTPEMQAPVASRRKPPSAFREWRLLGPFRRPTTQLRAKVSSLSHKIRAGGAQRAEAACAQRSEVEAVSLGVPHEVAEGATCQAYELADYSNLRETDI
# Assay: In vitro binding affinity against cloned human alpha-1D-adrenoceptor receptors expressed in rat-1 fibroblasts
row,Structure (SMILES),IC50 [µM]
1,CCN(CC)C(=O)c1ccccc1OCc1c[nH]cn1,> 30.2
2,CCN(CC)C(=O)c1ccccc1OCC1=NCCN1,> 30.2

# The remaining lines, values ahead:
row,IC50 [µM],Structure (SMILES)
1,0.0575,CSc1ccccc1NCc1cnc[nH]1
2,0.0195,CSc1ccccc1NCC1=NCCN1
3,0.871,CCCNC(=O)c1ccccc1NCc1c[nH]cn1

# Target: T5, Alpha-1D adrenergic receptor
# Assay: Activation of human Alpha-1D adrenergic receptors expressed in rat-1 fibroblasts
# Assay type: functional
row,Structure (SMILES),EC50 [µM]
1,CCN(CC)C(=O)c1ccccc1OCc1c[nH]cn1,> 100
2,COc1ccc(S(C)(=O)=O)c(NCC2=NCCN2)c1,> 100
3,CCN(CC)C(=O)c1ccccc1OCC1=NCCN1,> 100
4,Oc1ccc2cccc(NCc3c[nH]cn3)c2c1,> 5.01

# More lines, now with the values ahead:
row,EC50 [µM],Structure (SMILES)
1,> 5.01,CCN(CC)C(=O)c1ccccc1NCc1c[nH]cn1
2,> 5.01,c1ccc(-c2cnco2)c(NCC2=NCCN2)c1
3,0.02,CSc1ccccc1NCc1cnc[nH]1
4,0.0316,Oc1ccc2cccc(NCC3=NCCN3)c2c1
5,0.1,c1ccc(-c2ccno2)c(OCC2=NCCN2)c1
6,0.00794,CSc1ccccc1NCC1=NCCN1
7,0.0794,CCCNC(=O)c1ccccc1NCc1c[nH]cn1

# Target: T6, Alpha-1D adrenergic receptor (Homo sapiens) (UniProt P25100)
# T6 sequence (whole entry): T5 sequence (P25100 whole entry)
# Assay: Activation of human alpha-1D-adrenoceptor receptor expressed in rat-1 fibroblasts relative to phenylephrine
# Assay type: functional
row,Max [%],Structure (SMILES)
1,36,CSc1ccccc1NCc1c[nH]cn1
2,53,Oc1ccc2cccc(NCC3=NCCN3)c2c1
3,77,CCCNC(=O)c1ccccc1NCc1c[nH]cn1
4,34,c1ccc(-c2ccno2)c(OCC2=NCCN2)c1
5,55,CSc1ccccc1NCC1=NCCN1

# Target: T2, Alpha-1A adrenergic receptor
# Assay: In vitro binding affinity against cloned human alpha-1A-adrenoceptor receptors expressed in rat-1 fibroblasts
row,Structure (SMILES),IC50 [µM]
1,CCN(CC)C(=O)c1ccccc1OCc1c[nH]cn1,> 30.2
2,CCN(CC)C(=O)c1ccccc1OCC1=NCCN1,> 30.2

# Next, values leading:
row,IC50 [µM],Structure (SMILES)
1,0.17,CSc1ccccc1NCc1cnc[nH]1
2,0.107,CSc1ccccc1NCC1=NCCN1
3,0.0776,CCCNC(=O)c1ccccc1NCc1c[nH]cn1

# Target: T3, Alpha-1B adrenergic receptor
# Assay: Activation of human alpha-1B adrenergic receptors expressed in rat-1 fibroblasts
# Assay type: functional
row,Structure (SMILES),EC50 [µM]
1,CCN(CC)C(=O)c1ccccc1OCc1c[nH]cn1,> 100
2,COc1ccc(S(C)(=O)=O)c(NCC2=NCCN2)c1,> 100
3,CCN(CC)C(=O)c1ccccc1OCC1=NCCN1,> 100
4,Oc1ccc2cccc(NCc3c[nH]cn3)c2c1,> 5.01

# More lines, now with the values ahead:
row,EC50 [µM],Structure (SMILES)
1,> 5.01,CCN(CC)C(=O)c1ccccc1NCc1c[nH]cn1
2,> 5.01,c1ccc(-c2cnco2)c(NCC2=NCCN2)c1
3,0.0251,CSc1ccccc1NCc1cnc[nH]1
4,> 5.01,Oc1ccc2cccc(NCC3=NCCN3)c2c1
5,0.1,c1ccc(-c2ccno2)c(OCC2=NCCN2)c1
6,0.002,CSc1ccccc1NCC1=NCCN1
7,0.316,CCCNC(=O)c1ccccc1NCc1c[nH]cn1
